The results in this text go back to patent publication US7183075B2, “Purified and isolated potassium-chloride cotransporter nucleic acids and polypeptides and therapeutic and screening methods using same” (Vanderbilt University, priority 2000, dated 2007).

In the experiment the target is T1, xKCC (Xenopus laevis, UniProt A0A1L8HZL0).
T1 sequence (A0A1L8HZL0 1-1133): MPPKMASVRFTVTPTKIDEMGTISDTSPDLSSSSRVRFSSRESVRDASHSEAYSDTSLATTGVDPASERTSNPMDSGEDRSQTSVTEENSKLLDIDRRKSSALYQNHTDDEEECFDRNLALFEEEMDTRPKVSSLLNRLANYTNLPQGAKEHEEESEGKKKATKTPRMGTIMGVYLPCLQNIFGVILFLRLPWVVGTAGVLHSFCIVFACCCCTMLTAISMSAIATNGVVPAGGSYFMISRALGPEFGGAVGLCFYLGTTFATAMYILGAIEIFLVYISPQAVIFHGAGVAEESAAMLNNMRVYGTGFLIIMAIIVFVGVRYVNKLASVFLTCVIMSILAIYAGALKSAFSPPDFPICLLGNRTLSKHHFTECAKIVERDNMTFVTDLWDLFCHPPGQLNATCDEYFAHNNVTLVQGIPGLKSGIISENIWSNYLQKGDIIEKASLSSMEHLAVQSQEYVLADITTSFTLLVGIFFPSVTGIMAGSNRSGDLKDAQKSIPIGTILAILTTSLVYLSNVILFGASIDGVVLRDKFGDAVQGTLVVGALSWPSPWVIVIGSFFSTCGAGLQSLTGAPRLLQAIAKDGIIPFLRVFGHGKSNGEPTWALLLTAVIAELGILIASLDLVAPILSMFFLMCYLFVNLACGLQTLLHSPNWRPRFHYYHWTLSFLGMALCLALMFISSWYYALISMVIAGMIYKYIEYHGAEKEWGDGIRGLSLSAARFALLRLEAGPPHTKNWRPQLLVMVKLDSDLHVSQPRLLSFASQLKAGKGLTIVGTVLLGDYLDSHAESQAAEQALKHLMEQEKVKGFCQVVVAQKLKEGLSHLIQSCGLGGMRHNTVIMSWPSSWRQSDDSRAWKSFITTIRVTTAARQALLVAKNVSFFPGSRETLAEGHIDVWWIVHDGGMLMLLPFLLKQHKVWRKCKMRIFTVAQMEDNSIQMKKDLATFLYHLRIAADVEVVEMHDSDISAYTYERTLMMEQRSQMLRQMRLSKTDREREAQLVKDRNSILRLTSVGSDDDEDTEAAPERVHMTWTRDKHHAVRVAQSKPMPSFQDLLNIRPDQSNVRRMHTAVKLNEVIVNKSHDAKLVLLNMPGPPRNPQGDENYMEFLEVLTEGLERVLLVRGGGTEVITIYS
As to the kind of experiment: 86Rb+ uptake by the endogenous K+-Cl- cotransporter of water-injected Xenopus oocytes. Particulars: for Km: xKCC. The class given is cell-based. How it is done: Oocytes were surgically collected from anesthetized female Xenopus adults under 0.17% tricaine and incubated for 1 hour with vigorous shaking in frog Ringer ND96 (96 mM sodium chloride, 2 mM potassium chloride, 1.8 mM calcium chloride, 1.0 mM magnesium chloride, and 5 mM Hepes/Tris, pH 7.4) in the presence of 2 mg/ml collagenase B. Oocytes were then washed four times in ND96, manually defolliculated, and incubated overnight in ND96 at 18° C. On the next day, defolliculated stage V–VI oocytes were injected with 50 nl of water or a solution containing cRNA at a concentration of 0.25–0.5 μg/μl (25 ng/oocyte). Oocytes were incubated at 17–18° C. in ND96 (96 mM sodium chloride, 2 mM potassium chloride, 1.8 mM calcium chloride, 1.0 mM magnesium chloride, and 5 mM Hepes/Tris, pH 7.4), supplemented with 2.5 mM sodium pyruvate and 5 mg/100 ml gentamicin, for 3–4 days. The incubation medium was changed every 24 hours. On the day of the experiment, oocytes were switched to Cl^−-free ND96 (96 mM Na^+ Na^+ isethionate, 2 mM K^+ gluconate, 6 mM Ca^2+ gluconate, 1 mM Mg^2+ gluconate, 5 mM Hepes, 2.5 mM sodium pyruvate, 5 mg/100 ml gentamicin, pH 7.4) for 2 hours prior to the uptake assay.
K^+—Cl^− cotransport was assessed by measuring tracer ^86Rb^+ uptake (NEN® Life Science Products of Boston, Mass.) in experimental groups of at least 15 oocytes. Since both KCC4 and KCC1 display minimal activity under isotonic conditions ^86Rb^+ uptake was generally assessed in oocytes swollen by a 30-minute incubation period in a hypotonic K^+ and Cl^−-free medium (50 mM N-methyl-D-glucamine (NMDG) gluconate, 4.6 mM Ca^2+ gluconate, 1.0 mM Mg^2+ gluconate, 5 mM Hepes, pH 7.4) with 1 mM ouabain, followed by a 60-minute uptake period in a hypotonic Na^+-free medium with variable K^+—Cl^− content. […] All uptake solutions also contained 1.8 mM CaCl2, 1 mM MgCl2, 5 mM Hepes, pH 7.4, and were supplemented with 1 mM ouabain and […] ^86Rb^+. […]
All uptake assays were performed at 32° C. […] Oocytes were dissolved in 10% SDS, and tracer activity was determined for each oocyte by β-scintillation counting.

Each structure is given as a SMILES string. Read-outs that look alike come from different tables or passages of the source.

Take `Cl` [Chloride]: the Km (in general, the substrate concentration at which the rate is half of its maximum) (read-out: Chloride Km) was determined as 15.4 mM.

In the case of `CCN1C(=O)C=CC1=O` [NEM, N-ethylmaleimide], under “NEM, H2O-injected oocytes, both isotonic and hypotonic”, the “86Rb+ uptake due to endogenous oocyte K+-Cl- cotransporter” value is “significantly increased”. As to `[K+]` [Potassium], for the setting “read-out: Potassium Km”, the Michaelis constant (Km) amounted to 27.7 mM.
